Assay: Tested for the ability to inhibit Ins(1,4,5)P 3-phosphatase

OC1C(O)C(OP(O)(O)=S)C(OP(O)(O)=S)C(O)C1OP(O)(O)=S (stereo not drawn) [(-)-chiro-inositol 1,4,6-trisphosphorothioate]
Ki: 978 µM
